Assay results taken from patent publication US20060183901A1, “Crystalline form of an indazole-carboxamide compound” (THERAVANCE, INC., priority 2005, published 2006).

Assays:
Type in all cases: physicochemical
[1] = Thermogravimetric analysis (TGA)
Protocol: Thermogravimetric analysis (TGA) was performed using a TA Instruments Model Q-500 module. Data were collected and analyzed using TA Instruments Thermal Advantage for Q Series™ software. […] The balance and furnace chambers were purged with nitrogen during use. Representative TGA traces for samples of crystalline dihydrochloride and dihydrobromide salts of the invention are also shown in FIGS. 2 and 4, respectively.
(§1) The crystalline acid salts of the compound of formula I of Comparative Examples 1-4 were analyzed by PXRD, DSC, and TGA. The temperatures at which endothermic heat flow was observed by DSC, and weight loss was observed by TGA, along with confirmation of crystallinity by PXRD are summarized in Table II where the stoichiometry is indicated by the number of molar equivalents of acid used to prepare the acid salt.

[2] = Differential scanning calorimetry (DSC)
Protocol: Differential scanning calorimetry (DSC) was performed using a TA Instruments
Model Q-100 module. Data were collected and analyzed using TA Instruments Thermal Advantage for Q Series™ software. A sample of about 1-2 mg was accurately weighed into an aluminum pan with lid. The sample was evaluated using a linear heating ramp of 5° C./min from ambient temperature to at least 225° C. The DSC cell was purged with dry nitrogen during use. Representative DSC traces for samples of the crystalline dihydrochloride and dihydrobromide salts of the invention are shown in FIGS. 2 and 4, respectively.
as §1

[3] = Dynamic moisture sorption assessment; conditions: humidity range of 40% to 60% relative humidity
Protocol: Dynamic moisture sorption (DMS) assessment was performed at 25° C. using a VTI atmospheric microbalance, SGA-100 system (VTI Corp., Hialeah, Fla. 33016). A sample size of approximately 5-10 mg was used and the humidity was set at the ambient value at the start of the analysis. A typical DMS analysis consisted of three scans: ambient to 2% relative humidity (RH), 2% RH to 90% RH, 90% RH to 5% RH at a scan rate of 5% RH/step. The mass was measured every two minutes and the RH was changed to the next value (+5% RH) when the mass of the sample was stable to within 0.01% for 5 consecutive points. Representative DMS traces for samples of crystalline dihydrochloride and dihydrobromide salts of the invention are shown in FIGS. 5 and 6, respectively.

[4] = Solid state stability assessment (HPLC, Karl Fischer)
Protocol: Samples of the dihydrochloride salt of the invention, about 100 mg each, were stored in multiple 4 mL glass vials with Teflon lined lids at 25° C. and 60% relative humidity (RH) and at 40° C. and 75% RH in open and closed containers. At specific intervals, the contents of a representative vial was removed and analyzed by the Karl Fisher method for water content and by the following HPLC method: • Column: Agilent Zorbax Bonus RP, 4.6×250 mm, 5 μm (Agilent Part No. 880668-901); • Mobile Phase A: 88% water, 2% acetonitrile, 10% 100 mM potassium phosphate; • Mobile Phase B: 20% water, 70% acetonitrile; 10% 100 mM potassium phosphate; • Flow rate: 1.5 mL/min; • Injection Volume: 10 μL • Detector: 214 nm; • Gradient—Time in minutes (% Mobile Phase B): 0.0 (2); 1.0 (2); 9.0 (22); • 19.0 (28); 33.0 (63); 36.3 (100); 37.0 (2); and 42.0 (2).
Samples were prepared as 0.25 to 0.75 mg/mL solutions in 5% acetonitrile, 85% water, 10% 100 mM potassium phosphate for injection onto the HPLC.
The initial water content was 1.2%, as determined by Karl Fischer titration using a Brinkman Metrohm (Westbury, N.Y.) Karl Fischer Model 831 coulometer. After 6 months the water content of the samples stored in open containers at 25° C./60% RH and at 40° C./75% RH was 2.9% and 5.3%, respectively, an increase of 1.7% and 4.1%, respectively.

[5] = Storage stability of the crystalline hydrate at 40° C. and 75% RH
Protocol: A sample of the dihydrochloride salt of the invention, about 50 mg, was stored in a 20 mL glass vial at 40° C. and 75% relative humidity. At specific intervals, aliquots of sample were dispensed and analyzed by PXRD and by DSC and TGA. The low temperature (i.e. below 150° C.) features in the DSC and TGA traces are characteristic of a hydrate. The hydrate form is observed to be stable when stored at 40° C. and 75% RH.

[6] = 6 months, open containers, 25° C./60% RH
[7] = 6 months, open containers, 40° C./75% RH
[8] = six months at 25° C. and 60% relative humidity

CC(=O)N1CCN(CCN2[C@@H]3CC[C@H]2C[C@@H](NC(=O)c2nn(C(C)C)c4ccccc24)C3)CC1.O=P(O)(O)O [phosphate (1), Phosphoric Acid Salt of 1-isopropyl-1H-indazole-3-carboxylic Acid {(1S,3R,5R)-8-[2-(4-acetylpiperazin-1-yl)ethyl]-8-azabicyclo[3.2.1]oct-3-yl}amide]
TGA: temperature of weight loss [1]: loss <100 °C | TGA: weight loss [1]: 3-5% wt.

CC(=O)O [acetate]
DSC endotherm (temperature of endothermic heat flow) [2]: ˜100 °C | TGA: temperature of weight loss [1]: ˜100 °C

CC(=O)N1CCN(CCN2[C@@H]3CC[C@H]2CC(NC(=O)c2nn(C(C)C)c4ccccc24)C3)CC1.O=C(O)/C=C/C(=O)O (stereo partly drawn) [fumarate, fumaric Acid Salt of 1-isopropyl-1H-indazole-3-carboxylic acid {(1S,3R,5R)-8-[2-(4-acetylpiperazin-1-yl)ethyl]-8-azabicyclo[3.2.1]oct-3-yl}amide]
DSC endotherm (temperature of endothermic heat flow) [2]: <150 °C | TGA: temperature of weight loss [1]: loss ˜100 °C | TGA: weight loss [1]: 5-6% wt.

O=[N+]([O-])O [nitrate]
DSC endotherm (temperature of endothermic heat flow) [2]: <100 °C | TGA: temperature of weight loss [1]: loss ˜150 °C | TGA: weight loss [1]: 5-6% wt.

benzoate
DSC endotherm (temperature of endothermic heat flow) [2]: <150 °C | TGA: temperature of weight loss [1]: ˜100 °C

CC(=O)N1CCN(CCN2[C@@H]3CC[C@H]2C[C@@H](NC(=O)c2nn(C(C)C)c4ccccc24)C3)CC1.Cl.Cl [dihydrochloride salt, 1-isopropyl-1H-indazole-3-carboxylic Acid {(1S,3R,5R)-8-[2-(4-acetylpiperazin-1-yl)ethyl]-8-azabicyclo[3.2.1]oct-3-yl}amide dihydrochloride]
DSC: temperature below which no (significant) thermal events [2]: about 200 °C | simultaneous melting and decomposition temperature (DSC and TGA) [2]: 180-200 °C | weight gain (hygroscopicity) [3]: less than 1% | change in potency ([4]; 6 months of storage, all conditions (25° C./60% RH, 40° C./75% RH, open and closed)): no detectable change in potency | increase of water content [4, 6]: 1.7% | water content (Karl Fischer) [4, 6]: 2.9% | increase of water content [4, 7]: 4.1% | water content (Karl Fischer) [4, 7]: 5.3% | initial potency compared with the freebase (HPLC area percentage) ([4]; initial): 82.4% | water content (Karl Fischer) ([4]; initial): 1.2% | chemical degradation by HPLC [4, 8]: no chemical degradation | gain in moisture content [4, 8]: < 2% | TGA: temperature below which no (significant) thermal event [1]: about 180 °C

Br.Br.CC(=O)N1CCN(CCN2[C@@H]3CC[C@H]2CC(NC(=O)c2nn(C(C)C)c4ccccc24)C3)CC1 (stereo partly drawn) [dihydrobromide salt, 1-isopropyl-1H-indazole-3-carboxylic Acid {(1S,3R,5R)-8-[2-(4-acetylpiperazin-1-yl)ethyl]-8-azabicyclo[3.2.1]oct-3-yl}amide dihydrobromide]
DSC: temperature below which no (significant) thermal events [2]: about 230 °C | weight gain (hygroscopicity) [3]: less than 1% | TGA: temperature below which no (significant) thermal event [1]: about 250 °C

CC(=O)N1CCN(CCN2[C@@H]3CC[C@H]2CC(NC(=O)c2nn(C(C)C)c4ccccc24)C3)CC1.Cl.Cl.O (stereo partly drawn) [hydrate, Crystalline hydrate of 1-isopropyl-1H-indazole-3-carboxylic Acid {(1S,3R,5R)-8-[2-(4-acetylpiperazin-1-yl)ethyl]-8-azabicyclo[3.2.1]oct-3-yl}amide dihydrochloride]
change in PXRD peak positions ([5]; 8 weeks vs 12 weeks at 40° C./75% RH): no significant change in PXRD peak positions | stability of hydrate form on storage ([5]; 40° C. and 75% RH): stable

CC(=O)N1CCN(CCN2[C@@H]3CC[C@H]2CC(NC(=O)c2nn(C(C)C)c4ccccc24)C3)CC1.Cc1ccc(S(=O)(=O)O)cc1 (stereo partly drawn) [tosylate, p-toluene Sulfonic Acid Salt of 1-isopropyl-1H-indazole-3-carboxylic acid {(1S,3R,5R)-8-[2-(4-acetylpiperazin-1-yl)ethyl]-8-azabicyclo[3.2.1]oct-3-yl}amide]
DSC endotherm (temperature of endothermic heat flow) [2]: >200 °C
